In patent US9029389B2 (Institut Pasteur Korea, priority 2011, dated 2015):

How the values were obtained:
Human 5-lipoxygenase = biological target: T1, Human 5-lipoxygenase (Homo sapiens, UniProt P09917); assay: Activity of compounds against 5-LO enzyme (LTB4 measurement and/or fluorescence method); type: biochemical
T1 construct: purchased Cayman 60402; host or cells: insect cells
T1 sequence (P09917 1-674): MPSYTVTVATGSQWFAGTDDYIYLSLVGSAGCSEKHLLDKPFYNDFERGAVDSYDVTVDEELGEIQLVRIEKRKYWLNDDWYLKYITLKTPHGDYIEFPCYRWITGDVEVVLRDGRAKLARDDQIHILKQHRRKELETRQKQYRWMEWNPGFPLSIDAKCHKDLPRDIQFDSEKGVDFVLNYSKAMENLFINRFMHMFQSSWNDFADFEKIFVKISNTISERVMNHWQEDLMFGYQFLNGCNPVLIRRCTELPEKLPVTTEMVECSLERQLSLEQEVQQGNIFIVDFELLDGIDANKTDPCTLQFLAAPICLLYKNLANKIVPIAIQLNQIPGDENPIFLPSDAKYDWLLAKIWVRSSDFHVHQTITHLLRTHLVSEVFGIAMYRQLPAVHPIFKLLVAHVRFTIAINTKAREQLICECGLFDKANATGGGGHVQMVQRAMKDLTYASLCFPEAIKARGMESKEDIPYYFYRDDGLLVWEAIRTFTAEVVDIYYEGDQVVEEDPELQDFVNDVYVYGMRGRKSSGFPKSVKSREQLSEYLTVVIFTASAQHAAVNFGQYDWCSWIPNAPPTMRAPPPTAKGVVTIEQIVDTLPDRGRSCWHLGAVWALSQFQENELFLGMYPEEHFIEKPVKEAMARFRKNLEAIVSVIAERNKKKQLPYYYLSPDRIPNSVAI
Method in brief: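 Two read-outs: LTB4 measured by EIA and/or LC/MS/MS with LTB4-d4 standard after 15 min RT compound preincubation with insect-cell 5-LO and a 5 min 37 °C reaction on 3 uM arachidonic acid (0.1 mM ATP, pH 7.4). The room-temperature fluorescence format used 20 uM H2DCFDA, 100 uM ATP, 3 uM arachidonic acid, 5 min; IC50 from 6/11-point curves.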

[1] = tested on: inflammatory lesions in the lungs; assay: Acute TB mouse model of infection, histopathological analysis of lung tissue; type: in vivo, BalbC mice; conditions: TB-infected mice, Hematoxylin and Eosin staining, compared with even INH treatment (FIG. 1)
Method: The effect of compound 127 on TB-infected mice was compared to that of the reference compound Isoniazid (INH). 8-week old female BalbC mice were infected with 6×10^5 M. tuberculosis H37Rv via intranasal instillation. Mice were sacrificed at day 1 to control the number of CFU in the lungs. In the acute model of infection, mice were treated for 4 weeks, starting at day 1. Compounds were freshly dissolved in a 0.5% methylcellulose solution and administered by oral gavage 5 times/week. Bacterial load was assessed in lungs after homogenizing the organs in 1×PBS. Serial dilutions of organ homogenates were spread on Middlebrook 7H11 plates and CFU were determined after 3 weeks incubation at 37° C. under 5% CO2. Histopathological analysis of lung tissue was performed by Hematoxylin and Eosin staining.

M. tuberculosis H37Rv = assay: Acute TB mouse model of infection, bacterial load in lungs; type: in vivo, Mycobacterium tuberculosis
[2] = tested on: production of LTB4 in human PBMC (peripheral blood mononuclear cells); assay: Production of LTB4 in PBMC (LTB4 secretion assay); type: cell-based; conditions: 12 point dose response in duplicate
Method: Frozen human PBMC (peripheral blood mononuclear cells, AllCells, Cat#[…]) was diluted 50 times with fresh culture media (RPMI 1640 supplemented with 10% FBS, 2 mM L-alanyl-L-glutamine). Cells were harvested by centrifugation and resuspended in fresh culture media to a concentration of 5×10^6 cells per milliliter. 140 ul of cell suspension was then liquated to each well (96-well plate). After incubation at 37° C. for 1 hr under 5% CO2, 10 ul of serially diluted compounds (in 100% DMSO) and 10 ul of arachidonic acid to a final concentration of 30 uM were added and further incubated for 1 hr at 37° C. for 1 hr under 5% CO2. Then, inducers, such as A23187 (Ionophor), sodium arsenite, sodium chloride and/or Anti-DNP IgE, were added in a volume of 40 ul and cells were incubated at 37° C. for […]. Culture supernatant was harvested by centrifugation and LTB4 levels were quantified using LTB4 EIA kit (Cayman, Cat#520111). Six of the 378 compounds tested against the 5-LO enzyme in vitro were also selected to be tested for their activity in a human cellular assay. Compounds were tested in a 12 point dose response in duplicate.

For `CCc1nc2cc(Cl)ccn2c1C(=O)NCc1ccc(N2CCN(c3ccc(F)cc3)CC2)cc1` [compound 127, 7-Chloro-2-ethyl-N-(4-(4-(4-fluorophenyl)piperazin-1-yl)benzyl)imidazo[1,2-a]pyridine-3-carboxamide], which inhibition at 10 µM (Human 5-lipoxygenase; 5-LO, single concentration of 10 uM in duplicate) is on record?
The inhibition at 10 µM was > 69%.

And the IC50 (Human 5-lipoxygenase; 6 or 11 point dose response in duplicate)?
Its IC50 is > 20 µM.

And the “number and size of inflammatory lesions in the lungs” value [1]?
The value was “significant reduction in the number and size of inflammatory lesions in the lungs”.

And the Log10CFU (M. tuberculosis H37Rv; 50 mg/kg oral gavage 5 times/week, 4 weeks of treatment)?
Its Log10CFU is 6.47 Log10CFU.

What about the “reduction of CFU compared to untreated mice” value (M. tuberculosis H37Rv; 50 mg/kg, after 4 weeks of treatment) of the same compound?
The value was ~1 log CFU.

And the melting point?
The melting point was 212 to 213 °C.

What about the EC50 [2] of the same compound?
Its EC50 is < 1000 nM.
